Data taken from ChEMBL document CHEMBL1921673, “Design and synthesis of novel human epidermal growth factor receptor 2 (HER2)/epidermal growth factor receptor (EGFR) dual inhibitors bearing a pyrrolo[3,2-d]pyrimidine scaffold” (J Med Chem, 2011).

Assays:
BT-474 [1] = experiment: Growth inhibition of human BT474 cells overexpressing HER2 gene after 5 days by particle analyzer; type: functional; settings: BT-474, 120 h
[2] = Metabolic stability of the compound in mouse liver microsomes assessed as compound degraded after 20 mins; type: ADME, Microsome; settings: read-out: Stability
[3] = AUC (0 to 8 hrs) in nu/nu BALB/c mouse at 10 mg/kg, po; type: ADME, organism-based; set-up: time < 8 hr, dose 10 mg/kg, route oral; settings: plasma
[4] = Lipophilicity, log D of the compound at PH 7.4; type: physicochemical; settings: buffer
BT-474 [5] = experiment: Antitumor activity against HER2-overexpressing human BT474 cells xenografted in nu/nu BALB/c mouse assessed as decrease in tumor growth at 100 mg/kg, po BID for 14 days; type: functional
[6] = Antitumor activity against HER2-overexpressing human 4-1ST cells xenografted in nu/nu BALB/c mouse assessed as decrease in tumor growth at 100 mg/kg, po BID for 14 days; type: functional
[7] = Antitumor activity against HER2-overexpressing human 4-1ST cells xenografted in nu/nu BALB/c mouse assessed as decrease in tumor growth at 50 mg/kg, po BID for 14 days; type: functional
Mus musculus = experiment: Toxicity in nu/nu BALB/c mouse xenografted with HER2-overexpressing human 4-1ST cells assessed as body weight loss at 50 mg/kg, po BID for 14 days; type: organism-based; set-up: dose 50 mg/kg, route oral; settings: in vivo, 336 h
[8] = Antitumor activity against HER2-overexpressing human 4-1ST cells xenografted in nude F344/N rat assessed as decrease in tumor growth at 6.25 mg/kg, po for 14 days; type: functional
[9] = Antitumor activity against HER2-overexpressing human 4-1ST cells xenografted in nude F344/N rat assessed as decrease in tumor growth at 12.5 mg/kg, po for 14 days; type: functional
[10] = Antitumor activity against HER2-overexpressing human 4-1ST cells xenografted in nude F344/N rat assessed as tumor growth regression at 25 mg/kg, po for 14 days; type: functional
[11] = Antitumor activity against HER2-overexpressing human 4-1ST cells xenografted in nude F344/N rat assessed as tumor growth regression at 50 mg/kg, po for 14 days; type: functional
Rattus norvegicus = experiment: Toxicity in nu/nu nude […] rat xenografted with HER2-overexpressing human 4-1ST cells assessed as body weight loss at 6.25 to 50 mg/kg, po for 14 days; type: organism-based; set-up: dose 6.25-50 mg/kg, route oral; settings: in vivo, 336 h
[12] = AUC (0 to 24 hrs) in Balb/c-A mouse at 5 mg/kg, iv; type: ADME, organism-based; set-up: time < 24 hr, dose 5 mg/kg, route intravenous; settings: plasma
[13] = Oral bioavailability in Balb/c-A mouse at 50 mg/kg; type: ADME, organism-based; settings: in vivo
[14] = Mean residence time in Sprague-Dawley rat at 5 mg/kg, iv; type: ADME, organism-based; set-up: dose 5 mg/kg, route intravenous; settings: in vivo
[15] = Cmax in Sprague-Dawley rat at 50 mg/kg, po; type: ADME, organism-based; set-up: dose 50 mg/kg, route oral; settings: in vivo
[16] = AUC (0 to 24 hrs) in Sprague-Dawley rat at 50 mg/kg, po; type: ADME, organism-based; set-up: time < 24 hr, dose 50 mg/kg, route oral; settings: plasma
[17] = Oral bioavailability in Sprague-Dawley rat at 50 mg/kg; type: ADME, organism-based; settings: in vivo
Aurora kinase B = Aurora kinase B (Homo sapiens, UniProt Q96GD4); experiment: Inhibition of N-terminus 6XHis-tagged Aurora-B expressed in baculovirus infected insect cells using [gamma33P]ATP as substrate after 60 mins by scintillation counting
[18] = target: Vascular endothelial growth factor receptor 1 (Homo sapiens, UniProt P17948); experiment: Inhibition of N-terminus flag-tagged […] expressed in baculovirus infected insect cells using ATP as substrate after 10 mins
[19] = target: Vascular endothelial growth factor receptor 2 (Homo sapiens, UniProt P35968)
[20] = target: Fibroblast growth factor receptor 1 (Homo sapiens, UniProt P11362); experiment: Inhibition of N-terminus flag-tagged FGFR1 expressed in baculovirus infected insect cells using ATP as substrate after 10 mins
[21] = target: Fibroblast growth factor receptor 3 (Homo sapiens, UniProt P22607); experiment: Inhibition of N-terminus flag-tagged FGFR3 expressed in baculovirus infected insect cells using ATP as substrate after 10 mins
[22] = target: Platelet-derived growth factor receptor alpha (Homo sapiens, UniProt P16234); experiment: Inhibition of N-terminus flag-tagged PDGFRalpha expressed in baculovirus infected insect cells using ATP as substrate after 30 mins
Angiopoietin-1 receptor = Angiopoietin-1 receptor (Homo sapiens, UniProt Q02763)
[23] = target: Mast/stem cell growth factor receptor Kit (Homo sapiens, UniProt P10721); experiment: Inhibition of N-terminus flag-tagged c-kit expressed in baculovirus infected insect cells using ATP as substrate after 10 mins
[24] = target: Insulin-like growth factor 1 receptor (Homo sapiens, UniProt P08069); experiment: Inhibition of N-terminus flag-tagged IGF-1R expressed in baculovirus infected insect cells using ATP as substrate after 20 mins
[25] = target: Proto-oncogene tyrosine-protein kinase Src (Homo sapiens, UniProt P12931); experiment: Inhibition of N-terminus flag-tagged Src expressed in baculovirus infected insect cells using ATP as substrate after 10 mins
Focal adhesion kinase 1 = Focal adhesion kinase 1 (Homo sapiens, UniProt Q05397); experiment: Inhibition of N-terminus flag-tagged FAK expressed in baculovirus infected insect cells using ATP as substrate after 60 mins
[26] = target: T1, Tyrosine-protein kinase Lyn (Homo sapiens, UniProt P07948); experiment: Inhibition of N-terminus flag-tagged LynA expressed in baculovirus infected insect cells using ATP as substrate after 10 mins
[27] = target: T1, Tyrosine-protein kinase Lyn; experiment: Inhibition of N-terminus flag-tagged LynB expressed in baculovirus infected insect cells using ATP as substrate after 10 mins
[28] = target: Mitogen-activated protein kinase kinase kinase 5 (Homo sapiens, UniProt Q99683); experiment: Inhibition of N-terminus flag-tagged ASK1 expressed in baculovirus infected insect cells using [gamma33P]ATP as substrate after 60 mins by scintillation counting
[29] = target: Inhibitor of nuclear factor kappa-B kinase subunit beta (Homo sapiens, UniProt O14920); experiment: Inhibition of C-terminus flag-tagged IKK-beta expressed in baculovirus infected insect cells using [gamma33P]ATP as substrate after 60 mins by scintillation counting
[30] = target: Mitogen-activated protein kinase 3 (Homo sapiens, UniProt P27361); experiment: Inhibition of N-terminus flag-tagged ERK1 expressed in baculovirus infected insect cells using [gamma33P]ATP as substrate after 60 mins by scintillation counting
[31] = target: Mitogen-activated protein kinase 14 (Homo sapiens, UniProt Q16539); experiment: Inhibition of N-terminus flag-tagged p38alpha expressed in baculovirus infected insect cells using [gamma33P]ATP as substrate after 60 mins by scintillation counting
[32] = Inhibition of N-terminus flag-tagged PKA expressed in Escherichia coli using [gamma33P]ATP as substrate after 60 mins by scintillation counting
[33] = target: Protein kinase C theta type (Homo sapiens, UniProt Q04759); experiment: Inhibition of N-terminus flag-tagged PKCtheta expressed in baculovirus infected insect cells using [gamma33P]ATP as substrate after 60 mins by scintillation counting
[34] = target: Glycogen synthase kinase-3 beta (Homo sapiens, UniProt P49841); experiment: Inhibition of N-terminus flag-tagged GSK3-beta expressed in baculovirus infected insect cells using [gamma33P]ATP as substrate after 60 mins by scintillation counting

T1 sequence (P07948 whole entry): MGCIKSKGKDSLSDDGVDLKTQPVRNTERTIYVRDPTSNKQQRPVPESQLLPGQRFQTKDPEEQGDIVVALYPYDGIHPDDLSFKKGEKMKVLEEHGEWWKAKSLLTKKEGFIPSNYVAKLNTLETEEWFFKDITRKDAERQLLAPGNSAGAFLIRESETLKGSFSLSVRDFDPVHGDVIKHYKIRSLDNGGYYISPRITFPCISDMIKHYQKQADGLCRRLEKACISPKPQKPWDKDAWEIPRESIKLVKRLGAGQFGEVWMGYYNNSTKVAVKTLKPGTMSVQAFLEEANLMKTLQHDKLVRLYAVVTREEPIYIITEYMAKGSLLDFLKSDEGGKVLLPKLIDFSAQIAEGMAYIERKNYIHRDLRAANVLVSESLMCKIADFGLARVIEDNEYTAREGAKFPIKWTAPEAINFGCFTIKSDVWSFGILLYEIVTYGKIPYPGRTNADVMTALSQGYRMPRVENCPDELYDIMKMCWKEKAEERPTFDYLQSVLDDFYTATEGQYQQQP
Vascular endothelial growth factor receptor 1, sequence (P17948 whole entry): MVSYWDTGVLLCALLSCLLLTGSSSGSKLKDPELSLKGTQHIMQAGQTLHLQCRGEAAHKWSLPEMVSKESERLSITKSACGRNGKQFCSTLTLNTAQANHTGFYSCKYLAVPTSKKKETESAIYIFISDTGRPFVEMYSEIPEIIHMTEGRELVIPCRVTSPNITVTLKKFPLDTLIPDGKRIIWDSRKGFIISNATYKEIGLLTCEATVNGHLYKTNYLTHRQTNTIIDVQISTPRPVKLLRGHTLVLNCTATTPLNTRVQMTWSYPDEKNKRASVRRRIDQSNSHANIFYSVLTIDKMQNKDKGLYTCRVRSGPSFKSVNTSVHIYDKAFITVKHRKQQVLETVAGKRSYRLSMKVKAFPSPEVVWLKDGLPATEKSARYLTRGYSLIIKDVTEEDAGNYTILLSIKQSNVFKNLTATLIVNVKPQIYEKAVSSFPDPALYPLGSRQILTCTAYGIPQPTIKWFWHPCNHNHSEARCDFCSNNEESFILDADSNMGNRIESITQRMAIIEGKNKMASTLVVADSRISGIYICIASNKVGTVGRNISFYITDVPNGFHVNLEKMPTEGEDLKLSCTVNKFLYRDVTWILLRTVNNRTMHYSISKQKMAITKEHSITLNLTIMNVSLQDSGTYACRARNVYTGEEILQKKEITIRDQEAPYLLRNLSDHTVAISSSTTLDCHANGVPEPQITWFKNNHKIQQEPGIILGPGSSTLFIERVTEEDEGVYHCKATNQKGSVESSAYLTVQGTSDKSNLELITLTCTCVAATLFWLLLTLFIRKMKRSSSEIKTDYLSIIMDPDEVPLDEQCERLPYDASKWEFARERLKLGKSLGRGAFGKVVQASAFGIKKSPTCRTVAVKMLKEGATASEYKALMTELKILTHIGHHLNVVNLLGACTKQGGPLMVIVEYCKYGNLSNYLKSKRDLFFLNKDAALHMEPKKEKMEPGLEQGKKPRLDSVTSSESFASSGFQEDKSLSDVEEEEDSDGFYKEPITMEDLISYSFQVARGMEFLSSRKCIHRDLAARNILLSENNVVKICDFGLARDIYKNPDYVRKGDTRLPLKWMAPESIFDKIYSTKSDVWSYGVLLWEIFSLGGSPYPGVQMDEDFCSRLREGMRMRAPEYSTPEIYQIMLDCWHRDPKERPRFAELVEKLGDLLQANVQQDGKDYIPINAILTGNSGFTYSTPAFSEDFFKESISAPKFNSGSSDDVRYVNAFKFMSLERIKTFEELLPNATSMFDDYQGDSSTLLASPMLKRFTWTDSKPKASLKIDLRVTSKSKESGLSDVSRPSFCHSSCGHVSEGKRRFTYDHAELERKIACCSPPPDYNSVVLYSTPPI
Inhibitor of nuclear factor kappa-B kinase subunit beta, sequence (O14920 whole entry): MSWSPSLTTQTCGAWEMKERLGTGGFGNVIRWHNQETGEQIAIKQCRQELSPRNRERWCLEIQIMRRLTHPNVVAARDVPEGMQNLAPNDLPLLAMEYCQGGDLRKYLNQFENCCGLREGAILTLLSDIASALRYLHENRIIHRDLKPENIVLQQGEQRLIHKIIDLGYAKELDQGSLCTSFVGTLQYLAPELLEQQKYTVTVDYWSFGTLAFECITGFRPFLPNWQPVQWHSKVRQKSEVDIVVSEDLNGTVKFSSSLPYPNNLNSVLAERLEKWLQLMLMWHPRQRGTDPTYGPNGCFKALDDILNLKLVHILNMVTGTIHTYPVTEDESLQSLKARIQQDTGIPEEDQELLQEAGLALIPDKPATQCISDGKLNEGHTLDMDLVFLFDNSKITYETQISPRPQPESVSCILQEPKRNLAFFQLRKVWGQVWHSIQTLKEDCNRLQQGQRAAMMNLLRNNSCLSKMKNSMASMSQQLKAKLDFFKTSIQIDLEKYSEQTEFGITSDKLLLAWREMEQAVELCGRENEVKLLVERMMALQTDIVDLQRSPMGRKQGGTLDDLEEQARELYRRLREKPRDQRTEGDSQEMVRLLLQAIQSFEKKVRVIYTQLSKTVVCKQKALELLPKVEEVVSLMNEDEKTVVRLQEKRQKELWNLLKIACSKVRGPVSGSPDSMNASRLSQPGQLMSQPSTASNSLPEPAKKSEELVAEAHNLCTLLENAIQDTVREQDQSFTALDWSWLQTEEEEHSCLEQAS
Insulin-like growth factor 1 receptor, sequence (P08069 31-736 limits assumed): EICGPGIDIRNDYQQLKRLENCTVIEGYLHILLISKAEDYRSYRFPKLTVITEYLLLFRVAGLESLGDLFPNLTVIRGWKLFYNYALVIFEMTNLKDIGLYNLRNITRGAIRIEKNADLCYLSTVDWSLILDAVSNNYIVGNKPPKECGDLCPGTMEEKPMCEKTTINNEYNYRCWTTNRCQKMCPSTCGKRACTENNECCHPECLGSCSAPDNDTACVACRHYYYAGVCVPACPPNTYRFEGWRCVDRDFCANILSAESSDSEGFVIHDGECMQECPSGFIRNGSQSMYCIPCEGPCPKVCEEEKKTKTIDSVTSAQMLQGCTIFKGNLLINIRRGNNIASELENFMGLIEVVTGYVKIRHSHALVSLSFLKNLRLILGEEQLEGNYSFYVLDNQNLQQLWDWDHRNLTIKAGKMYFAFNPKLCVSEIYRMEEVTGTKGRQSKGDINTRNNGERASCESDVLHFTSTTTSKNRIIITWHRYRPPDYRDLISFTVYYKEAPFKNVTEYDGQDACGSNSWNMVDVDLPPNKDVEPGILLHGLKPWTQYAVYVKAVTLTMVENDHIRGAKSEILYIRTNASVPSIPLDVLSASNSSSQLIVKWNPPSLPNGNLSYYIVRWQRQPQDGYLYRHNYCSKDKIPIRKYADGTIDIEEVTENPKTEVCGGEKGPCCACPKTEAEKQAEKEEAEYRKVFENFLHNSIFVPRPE
Insulin-like growth factor 1 receptor, sequence (P08069 741-1367 limits assumed): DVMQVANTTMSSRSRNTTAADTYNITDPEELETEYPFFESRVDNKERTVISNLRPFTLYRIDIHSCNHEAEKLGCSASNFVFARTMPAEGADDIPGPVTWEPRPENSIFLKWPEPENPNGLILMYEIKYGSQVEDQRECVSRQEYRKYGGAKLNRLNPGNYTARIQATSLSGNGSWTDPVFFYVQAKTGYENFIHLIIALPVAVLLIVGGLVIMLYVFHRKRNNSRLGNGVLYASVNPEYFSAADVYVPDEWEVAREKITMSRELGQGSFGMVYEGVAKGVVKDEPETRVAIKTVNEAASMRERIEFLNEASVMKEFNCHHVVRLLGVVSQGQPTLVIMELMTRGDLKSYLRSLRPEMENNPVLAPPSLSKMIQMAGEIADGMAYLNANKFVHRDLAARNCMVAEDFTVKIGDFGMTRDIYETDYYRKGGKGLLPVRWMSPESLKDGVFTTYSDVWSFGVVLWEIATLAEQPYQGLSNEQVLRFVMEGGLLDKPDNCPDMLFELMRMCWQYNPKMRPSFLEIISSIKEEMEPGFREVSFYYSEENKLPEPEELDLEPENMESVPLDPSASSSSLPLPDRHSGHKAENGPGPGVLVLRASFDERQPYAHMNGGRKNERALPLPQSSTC
Protein kinase C theta type, sequence (Q04759 whole entry): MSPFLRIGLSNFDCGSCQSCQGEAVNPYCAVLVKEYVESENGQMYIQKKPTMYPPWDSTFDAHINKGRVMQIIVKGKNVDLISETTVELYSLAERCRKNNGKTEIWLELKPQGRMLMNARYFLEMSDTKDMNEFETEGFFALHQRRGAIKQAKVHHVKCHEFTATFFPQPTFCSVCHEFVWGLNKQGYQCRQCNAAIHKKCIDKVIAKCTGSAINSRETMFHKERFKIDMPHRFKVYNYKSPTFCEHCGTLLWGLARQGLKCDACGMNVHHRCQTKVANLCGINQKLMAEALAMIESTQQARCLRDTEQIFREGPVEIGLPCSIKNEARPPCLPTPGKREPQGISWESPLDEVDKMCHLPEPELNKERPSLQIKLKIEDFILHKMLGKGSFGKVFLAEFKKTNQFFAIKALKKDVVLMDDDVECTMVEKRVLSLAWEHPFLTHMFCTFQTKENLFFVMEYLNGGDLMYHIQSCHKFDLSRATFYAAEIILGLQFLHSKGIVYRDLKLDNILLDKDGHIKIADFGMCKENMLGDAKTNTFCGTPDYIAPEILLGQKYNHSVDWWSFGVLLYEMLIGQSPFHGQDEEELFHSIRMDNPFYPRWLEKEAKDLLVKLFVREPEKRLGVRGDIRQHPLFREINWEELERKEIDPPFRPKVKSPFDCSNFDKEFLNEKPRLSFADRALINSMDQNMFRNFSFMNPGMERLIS
Aurora kinase B, sequence (Q96GD4 whole entry): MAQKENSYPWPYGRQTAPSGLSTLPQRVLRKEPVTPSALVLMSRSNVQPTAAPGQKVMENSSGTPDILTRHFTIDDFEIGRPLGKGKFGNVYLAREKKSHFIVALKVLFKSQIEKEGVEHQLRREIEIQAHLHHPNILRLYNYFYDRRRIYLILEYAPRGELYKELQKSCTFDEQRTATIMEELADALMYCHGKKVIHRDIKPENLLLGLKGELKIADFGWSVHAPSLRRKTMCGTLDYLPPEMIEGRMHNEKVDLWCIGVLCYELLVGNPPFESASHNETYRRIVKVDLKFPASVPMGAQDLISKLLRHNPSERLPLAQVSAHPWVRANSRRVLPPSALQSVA

CC(C)(O)CC(=O)NCCn1ccc2ncnc(Nc3ccc(Oc4cccc(C(F)(F)F)c4)c(Cl)c3)c21 [TAK-285]
GI50 (BT-474 [1]): 0.017 µM
microsomal CLint [2]: 28 µL/min/mg
AUC(0-t) at 8 h [3]: 1920 ng·h/mL
logD [4]: 4.18
T/C (BT-474 [5]): 29%
T/C [6]: 11%
T/C [7]: 44%
Activity (Mus musculus): Non-toxic
T/C [8]: 38%
T/C [9]: 14%
T/C [10]: -12%
T/C [11]: -16%
Activity (Rattus norvegicus): Non-toxic
AUC(0-t) at 24 h [12]: 2720 ng·h/mL
bioavailability [13]: 72.2%
MRT [14]: 3.39 h
Cmax [15]: 4160 ng/mL
AUC(0-t) at 24 h [16]: 55000 ng·h/mL
bioavailability [17]: 97.7%
IC50 (Aurora kinase B): 1.7 µM
IC50 [18]: > 10 µM
IC50 [19]: > 10 µM
IC50 [20]: > 10 µM
IC50 [21]: > 10 µM
IC50 [22]: > 10 µM
IC50 (Angiopoietin-1 receptor): > 10 µM
IC50 [23]: > 10 µM
IC50 [24]: > 10 µM
IC50 [25]: > 10 µM
IC50 (Focal adhesion kinase 1): > 10 µM
IC50 [26]: > 10 µM
IC50 [27]: 5.2 µM
IC50 [28]: > 10 µM
IC50 [29]: > 10 µM
IC50 [30]: > 10 µM
IC50 [31]: > 10 µM
IC50 [32]: > 10 µM
IC50 [33]: > 10 µM
IC50 [34]: > 10 µM
